{"source": "patent US4224332A", "about": "“1-Aza-[2,2,2]-bicyclooctanes and anti-depressant and anti-parkinsonian compositions thereof” (Pharmindustrie, priority 1978, dated 1980)", "key": {"[1]": {"tested_on": "uptake of the choline", "assay": "inhibition of the uptake of choline by synaptosomes of the rat's brain, striatum", "format": "biochemical", "settings": "in vitro; for pIC50: rat brain synaptosomes, striatum", "excerpt": "(§1) The results are expressed by an inhibiting concentration IC50, which represents the dose of product in micromoles per liter reducing by 50% the uptake of the noradrenaline (NA), the dopamine (DA), the serotonine (5-HT), or the choline in the specific regions of the brain (hypothalamus,striatum, medulla+pons) where the corresponding neurons predominate."}, "[2]": {"tested_on": "uptake of the dopamine (DA)", "assay": "inhibition of the uptake of dopamine (DA) by synaptosomes of the rat's brain, striatum", "format": "biochemical", "settings": "in vitro; for pIC50: rat brain synaptosomes, striatum", "excerpt": "as §1"}, "[3]": {"tested_on": "uptake of the noradrenaline (NA)", "assay": "inhibition of the uptake of noradrenaline (NA) by synaptosomes of the rat's brain, hypothalamus", "format": "biochemical", "settings": "in vitro; for pIC50: rat brain synaptosomes, hypothalamus", "excerpt": "as §1"}, "[4]": {"tested_on": "uptake of the serotonine (5-HT)", "assay": "inhibition of the uptake of serotonine (5-HT) by synaptosomes of the rat's brain, medulla + pons", "format": "biochemical", "settings": "in vitro; for pIC50: rat brain synaptosomes, medulla + pons", "excerpt": "as §1"}, "[5]": {"assay": "acute toxicity, oral, male mouse CD1", "settings": "in vivo, 3 days observation", "description": "The acute toxicities of the compounds of formula (I) have been determined on the male mouse CD1 (Charles River), the products being administered orally. The LD50 have been calculated, after 3 days observation, by the cumulative method of J. J. REED and H. MUENCH. (Amer. J. Hyg. 27, 493, 1938), which is relied upon herein for this purpose and the disclosure incorporated by reference."}, "[6]": {"tested_on": "hypothermia caused by reserpine", "assay": "action on hypothermia caused by reserpine in mice", "format": "in vivo", "settings": "Mus musculus, po, read-out: ED50 p.o. (dose exerting an antihypothermic effect equal to 50% of that caused by 15 mg/kg per os of imipramine)", "quoted_text": "The results are expressed by an ED50 or dose of product, in mg/kg, capable of exerting an antihypothermic effect equal to 50% of the antihypothermic effect caused by 15 mg/kg (per os) of imipramine."}, "[7]": {"settings": "compared with imipramine and nomifensine"}}, "note": "pIC50: −log10 of the molar value. “Also recorded” adds a separate entry of the source. Like-named read-outs stand apart in the source and are kept apart here.", "data": [{"smiles": "c1ccc(C2CN3CCC2(c2ccccc2)CC3)cc1", "note": "(stereo not drawn) [Example 4, 3,4-diphenyl-1-aza-[2,2,2]-bicyclooctane]", "values": [{"measurement": "inhibiting activity on the neuronal uptake of the choline, in words", "setting": "[1]; [7]", "result": "active on all the four mediators used; also recorded: near to that of the imipramine; also recorded: exerts on the neuronal uptake of the choline an inhibiting activity"}, {"measurement": "pIC50", "setting": "[1]", "result": 4.60}, {"measurement": "inhibiting effect on uptake of the dopamine at the level of the striatum, in words", "setting": "[2]; [7]", "result": "active on all the four mediators used; also recorded: very superior to that of imipramine; also recorded: comes near to the nomifensine"}, {"measurement": "pIC50", "setting": "[2]", "result": 6.22}, {"measurement": "inhibiting effect on NA uptake, in words", "setting": "[3]; compared with imipramine", "result": "active on all the four mediators used; also recorded: near to that of the imipramine"}, {"measurement": "pIC50", "setting": "[3]", "result": 7.35}, {"measurement": "inhibiting effect on 5-HT uptake, in words", "setting": "[4]; compared with imipramine", "result": "active on all the four mediators used; also recorded: near to that of the imipramine"}, {"measurement": "pIC50", "setting": "[4]", "result": 6.52}, {"measurement": "LD50 at 72 h", "setting": "[5]", "result": 200, "unit": "mg/kg"}, {"measurement": "ED50", "setting": "[6]", "result": 2, "unit": "mg/kg"}]}, {"smiles": "CN(C)CCCN1c2ccccc2CCc2ccccc21", "note": "[Imipramine, reference compound]", "values": [{"measurement": "pIC50", "setting": "[1]", "result": 4.52}, {"measurement": "pIC50", "setting": "[2]", "result": 4.26}, {"measurement": "pIC50", "setting": "[3]", "result": 6.89}, {"measurement": "pIC50", "setting": "[4]", "result": 7.10}, {"measurement": "ED50", "setting": "[6]; mice, p.o., reserpine hypothermia", "result": 3, "unit": "mg/kg"}]}]}
